Results reported in PubChem BioAssay (NCI).
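Test compounds were applied to cells in 96-well plates for 48 hours at 5 doses. TGI: concentration producing complete growth inhibition.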

Legend:
Test in all cases: NCI anticancer screen, dose series, 48 h
HCC-2998 colon = test system: HCC-2998 colon
CCRF-CEM leukemia = test system: CCRF-CEM leukemia
MDA-N = test system: MDA-N
SK-MEL-5 melanoma = test system: SK-MEL-5 melanoma
SNB-75 CNS = test system: SNB-75 CNS
SN12C renal = test system: SN12C renal
LOX IMVI melanoma = test system: LOX IMVI melanoma
SW-620 colon = test system: SW-620 colon
UACC-62 melanoma = test system: UACC-62 melanoma
NCI/ADR-RES ovarian = test system: NCI/ADR-RES ovarian
786-0 renal = test system: 786-0 renal

Structure (SMILES)	TGI (HCC-2998 colon) [µM]	TGI (CCRF-CEM leukemia) [µM]	TGI (MDA-N) [µM]	TGI (SK-MEL-5 melanoma) [µM]	TGI (SNB-75 CNS) [µM]	TGI (SN12C renal) [µM]	TGI (LOX IMVI melanoma) [µM]	TGI (SW-620 colon) [µM]	TGI (UACC-62 melanoma) [µM]	TGI (NCI/ADR-RES ovarian) [µM]	TGI (786-0 renal) [µM]
O=c1c2ccccc2[nH]n1Cc1ccccc1	> 100	> 100	> 100	> 100	> 100	> 100	> 100	> 100	> 100	> 100	> 100
CCc1c2c(cc3c1CC1(C3)Cc3cc4c(c(C(=O)OC)c3C1)CCCC4)CCCC2 (configuration not stated)	> 100	> 100	> 100	> 100	–	> 100	> 100	–	35.1	> 100	> 100
N#CC1(C#N)NC(c2ccccc2)C(C#N)(C#N)NC1c1ccccc1 (configuration not stated)	> 100	> 100	> 100	> 100	> 100	> 100	> 100	> 100	> 100	> 100	> 100
OC1c2ccccc2CCC1CN1CCN(CCOC(c2ccc(F)cc2)c2ccc(F)cc2)CC1 (configuration not stated)	18.9	15.1	36.3	16.5	70.5	27.3	27.1	38.2	27.7	35.3	25
C=CC(O)(CBr)CCC(Br)C(=C)C (configuration not stated)	> 10	> 10	> 10	> 10	> 10	> 10	> 10	> 10	> 10	> 10	> 10
COC(=O)N1CC(=O)C(C(=O)NC23CC4CC(CC(C4)C2)C3)C1 (configuration not stated)	> 100	> 100	> 100	> 100	–	–	–	> 100	> 100	> 100	> 100
CSC1NC(c2ccccc2)=C(C#N)C(=O)N1C1OCC(OC(C)=O)C(OC(C)=O)C1OC(C)=O (configuration not stated)	> 100	–	> 100	> 100	> 100	> 100	> 100	> 100	> 100	> 100	> 100
COc1cc(CSc2ccc(O)cc2)cc(OC)c1OC	–	–	> 100	34.9	86.2	> 100	> 100	> 100	> 100	83.6	> 100
CC(=O)Nc1ccc2nc(-c3ccccn3)c(-c3ccccn3)nc2c1	> 100	> 100	> 100	> 100	> 100	> 100	> 100	> 100	> 100	> 100	> 100
COC1CCON1C(=O)c1ccccc1 (configuration not stated)	> 10	> 10	> 10	> 10	> 10	> 10	> 10	> 10	–	> 10	> 10
S=C(NCCc1ccccn1)N/N=C/c1ccccn1	> 100	< 0.01	> 100	2.69	> 100	13.3	22.5	> 100	4.59	> 100	> 89.7
CC(Oc1ccccc1Cl)C(=O)NN1C(=O)CC(=O)N(c2ccccc2)C1=S (configuration not stated)	> 100	–	> 100	> 100	> 100	> 100	> 100	> 100	> 100	> 100	> 100
COc1ccc([N+](=O)[O-])c2c(NCCCN(C)C)ccnc12	6.95	61.9	27	5.22	15.8	34	31	32.4	11.4	42.2	30.6
COc1ccc(/C=C/C(=O)/C=C/c2ccc(OC)cc2OC)c(OC)c1	13.3	13.5	6	16.9	45.1	65.2	18.1	83.6	52.5	91.4	29
Cc1ccc(C2(c3ccc(Cl)cc3)c3ccccc3C3=NCCN32)cc1 (configuration not stated)	18.8	19.5	12.4	23.2	24.9	29.7	27.7	32.6	20	24.9	26.9
c1cc(-c2ccc(-c3ccc(-c4ccc(-c5ccncc5)o4)cc3)o2)ccn1	33.1	30.2	31.1	26	36.6	45.5	42.8	> 100	32.9	> 100	30.7
CC1CN=C(NS(=O)(=O)c2cc(C(=O)Nc3ccc(Cl)cc3)c(Cl)cc2S)NN1 (configuration not stated)	49.1	> 100	> 100	28.8	–	> 100	> 100	> 100	84.1	> 100	> 100
CCCCCCCCCCCCOP(=O)(O)OP(=O)(O)OCC1OC(n2ccc(N)nc2=O)CC1O (configuration not stated)	> 100	> 100	> 100	> 100	> 100	> 100	> 100	> 100	> 100	> 100	> 100
CCCCCCCCCCCC(=O)OC[C@H](C[As](=O)(O)O)OC(=O)CCCCCCCCCCC	22.4	> 100	14.8	4.54	24.7	16.4	23.6	27.4	6.98	29.3	26
N#CC(N=Nc1ccccc1C(=O)O)C(N)=O (configuration not stated)	–	> 100	> 100	> 100	> 100	> 100	–	> 100	> 100	> 100	> 100
CC12C3C4C1C1C2C3C41CO (configuration not stated)	–	> 100	> 100	> 100	> 100	> 100	> 100	> 100	> 100	> 100	> 100
